According to US20110294772A1, “USE OF CYCLOSQUARAMIDE COMPOUNDS AS ANTI-TUMOUR AGENTS” (priority 2008, published 2011):
Several values for one entry are separate records, joined by “and”; a condition that tells them apart may be missing. Equal entries are not always repeated.

How the values were obtained:
[1] = tested on: MCF-7 (Breast); experiment: NCI60 panel IC50; assay type: cell-based; conditions: Homo sapiens, MCF7
Method: (§1) On the other hand, the values of IC50 were determined in the panel of NCl60 cell lines for compound 10.
(§2) A total of 2 independent experiments were carried out with assays in triplicate for the compound and cell line. All those assays where an IC50 value was not reached in the highest concentration of 1E-05 M are represented by “>1E-05”. In these cases, the standard deviation cannot be calculated and for that reason it is calculated as “-”.

[2] = tested on: OVCAR-3 (Ovarian); experiment: NCI60 panel IC50; assay type: cell-based; conditions: Homo sapiens
Method: as §1, §2

[3] = tested on: T47-D (Breast); experiment: NCI60 panel IC50; assay type: cell-based; conditions: Homo sapiens, T47D
Method: as §1, §2

[4] = tested on: UACC-62 (Melanoma); experiment: NCI60 panel IC50; assay type: cell-based; conditions: Homo sapiens
Method: as §1, §2

[5] = tested on: K-562 (Leukaemia); experiment: NCI60 panel IC50; assay type: cell-based; conditions: Homo sapiens, K562
Method: as §1, §2

[6] = tested on: A-498 (Renal); experiment: NCI60 panel IC50; assay type: cell-based; conditions: Homo sapiens, A498
Method: as §1, §2

[7] = tested on: Sw-620 (Colon); experiment: NCI60 panel IC50; assay type: cell-based; conditions: Homo sapiens
Method: as §1, §2

[8] = tested on: SNB-19 (CNS); experiment: NCI60 panel IC50; assay type: cell-based; conditions: Homo sapiens
Method: as §1, §2

[9] = tested on: MALME-3M (Melanoma); experiment: NCI60 panel IC50; assay type: cell-based; conditions: Homo sapiens
Method: as §1, §2

[10] = tested on: U-251 (CNS); experiment: NCI60 panel IC50; assay type: cell-based; conditions: Homo sapiens
Method: as §1, §2

[11] = tested on: IGR-OVI (Ovarian); experiment: NCI60 panel IC50; assay type: cell-based; conditions: Homo sapiens
Method: as §1, §2

[12] = tested on: ACHN (Renal); experiment: NCI60 panel IC50; assay type: cell-based; conditions: Homo sapiens
Method: as §1, §2

[13] = tested on: ADR-RE-3 (Breast); experiment: NCI60 panel IC50; assay type: cell-based; conditions: Homo sapiens
Method: as §1, §2

[14] = tested on: DMS-114 (Lung); experiment: NCI60 panel IC50; assay type: cell-based; conditions: Homo sapiens
Method: as §1, §2

[15] = tested on: SF-295 (CNS); experiment: NCI60 panel IC50; assay type: cell-based; conditions: Homo sapiens
Method: as §1, §2

[16] = tested on: SW-480 (Colon); experiment: NCI60 panel IC50; assay type: cell-based; conditions: Homo sapiens, SW480
Method: as §1, §2

[17] = tested on: NCI-H23 (Lung); experiment: NCI60 panel IC50; assay type: cell-based; conditions: Homo sapiens
Method: as §1, §2

[18] = tested on: PC-3 (Prostate); experiment: NCI60 panel IC50; assay type: cell-based; conditions: Homo sapiens
Method: as §1, §2

[19] = tested on: SK-MEL-2 (Melanoma); experiment: NCI60 panel IC50; assay type: cell-based; conditions: Homo sapiens
Method: as §1, §2

[20] = tested on: HI-60 (Leukaemia); experiment: NCI60 panel IC50; assay type: cell-based; conditions: Homo sapiens
Method: as §1, §2

[21] = tested on: SK-OV-3 (Ovarian); experiment: NCI60 panel IC50; assay type: cell-based; conditions: Homo sapiens
Method: as §1, §2

[22] = tested on: MOLT-4 (Leukaemia); experiment: NCI60 panel IC50; assay type: cell-based; conditions: Homo sapiens
Method: as §1, §2

[23] = tested on: CCRF-CEM (Leukaemia); experiment: NCI60 panel IC50; assay type: cell-based; conditions: Homo sapiens
Method: as §1, §2

[24] = tested on: UO-31 (Renal); experiment: NCI60 panel IC50; assay type: cell-based; conditions: Homo sapiens
Method: as §1, §2

[25] = tested on: NCI-H460 (Lung); experiment: NCI60 panel IC50; assay type: cell-based; conditions: Homo sapiens
Method: as §1, §2

[26] = tested on: DU-145 (Prostate); experiment: NCI60 panel IC50; assay type: cell-based; conditions: Homo sapiens
Method: as §1, §2

[27] = tested on: SF-268 (CNS); experiment: NCI60 panel IC50; assay type: cell-based; conditions: Homo sapiens, 2 experiments in triplicate
Method: as §1, §2

[28] = tested on: MDA-MB-435 S (Breast); experiment: NCI60 panel IC50; assay type: cell-based; conditions: Homo sapiens
Method: as §1, §2

[29] = tested on: Hs-578-T (Breast); experiment: NCI60 panel IC50; assay type: cell-based; conditions: Homo sapiens
Method: as §1, §2

[30] = molecular target: MUSK (Homo sapiens, UniProt O15146); experiment: in vitro kinase assay; assay type: biochemical
Method: (§3) Specifically, against a panel of 210 kinases representative of the human kinome, the compounds tested inhibited by […] the activity of 25 of them in in Vitro assays (Table 1).
(§4) The IC50 was determined for the most sensitive kinases to compound 10, obtaining values for said parameter, largely in the micromolar range. For this purpose, the 25 kinases inhibited more than 80% by the compound in in vitro assays were selected.

[31] = molecular target: FGF-R1 VM (Homo sapiens, UniProt P11362, V561M); experiment: in vitro kinase assay; assay type: biochemical
Sequence of FGF-R1 VM (P11362 402-822 V561M limits assumed): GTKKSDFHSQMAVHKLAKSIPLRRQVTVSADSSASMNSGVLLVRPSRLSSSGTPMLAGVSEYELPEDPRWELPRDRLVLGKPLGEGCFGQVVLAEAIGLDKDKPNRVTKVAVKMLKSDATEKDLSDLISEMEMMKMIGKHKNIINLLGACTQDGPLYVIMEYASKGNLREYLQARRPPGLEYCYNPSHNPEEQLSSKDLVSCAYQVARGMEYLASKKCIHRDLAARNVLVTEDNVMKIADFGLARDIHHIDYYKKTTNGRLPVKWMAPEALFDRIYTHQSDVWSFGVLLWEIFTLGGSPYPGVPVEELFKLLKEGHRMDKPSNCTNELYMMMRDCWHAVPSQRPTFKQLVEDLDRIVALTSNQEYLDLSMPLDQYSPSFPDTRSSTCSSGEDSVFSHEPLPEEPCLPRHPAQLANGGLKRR
Method: as §3, §4

[32] = molecular target: TRK-C (Homo sapiens, UniProt Q16288); experiment: in vitro kinase assay; assay type: biochemical
Sequence of TRK-C (Q16288 32-839): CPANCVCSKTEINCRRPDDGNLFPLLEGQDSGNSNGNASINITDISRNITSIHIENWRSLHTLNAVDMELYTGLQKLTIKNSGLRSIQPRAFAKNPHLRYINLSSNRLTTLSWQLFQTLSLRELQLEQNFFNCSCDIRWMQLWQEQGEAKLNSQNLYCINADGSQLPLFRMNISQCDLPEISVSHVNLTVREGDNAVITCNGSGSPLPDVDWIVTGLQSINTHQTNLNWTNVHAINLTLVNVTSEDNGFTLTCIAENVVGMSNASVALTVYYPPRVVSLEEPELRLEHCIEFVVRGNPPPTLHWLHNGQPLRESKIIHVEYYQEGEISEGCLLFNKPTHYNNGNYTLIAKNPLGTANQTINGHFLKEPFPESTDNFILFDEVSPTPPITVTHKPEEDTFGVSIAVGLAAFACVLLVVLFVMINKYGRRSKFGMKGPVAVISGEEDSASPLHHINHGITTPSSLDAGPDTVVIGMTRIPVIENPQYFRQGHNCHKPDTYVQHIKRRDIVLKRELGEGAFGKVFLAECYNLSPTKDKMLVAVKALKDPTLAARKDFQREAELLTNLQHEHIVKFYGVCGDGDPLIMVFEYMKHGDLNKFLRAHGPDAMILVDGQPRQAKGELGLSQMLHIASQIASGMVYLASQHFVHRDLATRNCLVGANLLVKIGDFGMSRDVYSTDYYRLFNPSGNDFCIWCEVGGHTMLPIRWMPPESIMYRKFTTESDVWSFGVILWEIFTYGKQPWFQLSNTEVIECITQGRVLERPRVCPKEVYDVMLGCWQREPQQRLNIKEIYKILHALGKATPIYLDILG
Method: as §3, §4

[33] = molecular target: PKC-alpha (Homo sapiens, UniProt P17252); experiment: in vitro kinase assay; assay type: biochemical
Method: as §3, §4

[34] = molecular target: FGF-R2 (Homo sapiens, UniProt P21802); experiment: in vitro kinase assay; assay type: biochemical
Sequence of FGF-R2 (P21802 22-821): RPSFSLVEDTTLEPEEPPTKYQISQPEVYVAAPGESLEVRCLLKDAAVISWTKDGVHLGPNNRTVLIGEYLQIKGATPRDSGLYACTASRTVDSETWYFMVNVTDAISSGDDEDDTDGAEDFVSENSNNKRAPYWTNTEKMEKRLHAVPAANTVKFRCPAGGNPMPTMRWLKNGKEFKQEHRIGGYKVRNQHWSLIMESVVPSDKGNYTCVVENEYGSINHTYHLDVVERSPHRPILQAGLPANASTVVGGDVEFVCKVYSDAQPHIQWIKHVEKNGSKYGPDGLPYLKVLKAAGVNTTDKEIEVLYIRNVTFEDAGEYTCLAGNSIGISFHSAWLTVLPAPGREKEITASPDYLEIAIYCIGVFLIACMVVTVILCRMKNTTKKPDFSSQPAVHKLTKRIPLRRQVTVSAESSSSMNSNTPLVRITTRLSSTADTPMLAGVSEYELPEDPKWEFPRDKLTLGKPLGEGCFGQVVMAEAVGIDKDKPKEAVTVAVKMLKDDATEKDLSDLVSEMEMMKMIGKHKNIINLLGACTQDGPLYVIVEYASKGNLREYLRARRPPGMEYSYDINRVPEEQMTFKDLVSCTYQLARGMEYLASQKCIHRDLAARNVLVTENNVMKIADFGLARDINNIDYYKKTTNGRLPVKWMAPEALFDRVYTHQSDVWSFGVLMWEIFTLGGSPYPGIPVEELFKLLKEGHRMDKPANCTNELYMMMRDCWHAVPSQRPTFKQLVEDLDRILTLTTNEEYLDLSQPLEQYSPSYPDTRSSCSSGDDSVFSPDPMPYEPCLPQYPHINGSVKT
Method: as §3, §4

[35] = molecular target: ABL1 (Homo sapiens, UniProt P00519); experiment: in vitro kinase assay; assay type: biochemical
Method: as §3, §4

[36] = molecular target: S6K (Homo sapiens, UniProt P23443); experiment: in vitro kinase assay; assay type: biochemical
Method: as §3, §4

[37] = molecular target: CHK1 (Homo sapiens, UniProt O14757); experiment: in vitro kinase assay; assay type: biochemical
Sequence of CHK1 (O14757 whole entry): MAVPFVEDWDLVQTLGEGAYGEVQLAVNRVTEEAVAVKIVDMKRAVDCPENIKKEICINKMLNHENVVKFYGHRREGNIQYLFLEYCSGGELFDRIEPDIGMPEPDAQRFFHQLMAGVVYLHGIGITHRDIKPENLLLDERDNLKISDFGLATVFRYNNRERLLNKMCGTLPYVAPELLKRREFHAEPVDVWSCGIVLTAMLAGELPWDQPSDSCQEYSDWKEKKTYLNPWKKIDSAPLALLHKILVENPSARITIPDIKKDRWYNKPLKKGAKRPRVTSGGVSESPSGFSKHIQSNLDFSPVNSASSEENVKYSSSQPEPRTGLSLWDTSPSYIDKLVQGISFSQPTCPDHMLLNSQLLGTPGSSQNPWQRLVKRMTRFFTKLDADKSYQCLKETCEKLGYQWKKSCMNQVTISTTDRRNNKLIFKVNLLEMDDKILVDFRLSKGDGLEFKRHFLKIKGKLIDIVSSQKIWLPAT
Method: as §3, §4

[38] = molecular target: TGFB-R1 (Homo sapiens, UniProt P36897); experiment: in vitro kinase assay; assay type: biochemical
Method: as §3, §4

[39] = molecular target: CDK9/CycT (Homo sapiens, UniProt P50750); experiment: in vitro kinase assay; assay type: biochemical
Sequence of CDK9/CycT (P50750 whole entry): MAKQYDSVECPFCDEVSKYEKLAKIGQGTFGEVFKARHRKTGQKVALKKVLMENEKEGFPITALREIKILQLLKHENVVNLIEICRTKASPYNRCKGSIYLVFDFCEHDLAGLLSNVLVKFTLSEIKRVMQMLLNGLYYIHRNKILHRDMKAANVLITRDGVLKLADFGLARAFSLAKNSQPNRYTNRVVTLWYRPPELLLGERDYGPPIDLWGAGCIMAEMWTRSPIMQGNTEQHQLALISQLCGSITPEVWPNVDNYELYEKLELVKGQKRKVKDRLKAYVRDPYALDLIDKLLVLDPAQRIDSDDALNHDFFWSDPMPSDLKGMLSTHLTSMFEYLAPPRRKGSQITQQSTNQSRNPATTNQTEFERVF
Sequence of CDK9/CycT (O60563 whole entry partner): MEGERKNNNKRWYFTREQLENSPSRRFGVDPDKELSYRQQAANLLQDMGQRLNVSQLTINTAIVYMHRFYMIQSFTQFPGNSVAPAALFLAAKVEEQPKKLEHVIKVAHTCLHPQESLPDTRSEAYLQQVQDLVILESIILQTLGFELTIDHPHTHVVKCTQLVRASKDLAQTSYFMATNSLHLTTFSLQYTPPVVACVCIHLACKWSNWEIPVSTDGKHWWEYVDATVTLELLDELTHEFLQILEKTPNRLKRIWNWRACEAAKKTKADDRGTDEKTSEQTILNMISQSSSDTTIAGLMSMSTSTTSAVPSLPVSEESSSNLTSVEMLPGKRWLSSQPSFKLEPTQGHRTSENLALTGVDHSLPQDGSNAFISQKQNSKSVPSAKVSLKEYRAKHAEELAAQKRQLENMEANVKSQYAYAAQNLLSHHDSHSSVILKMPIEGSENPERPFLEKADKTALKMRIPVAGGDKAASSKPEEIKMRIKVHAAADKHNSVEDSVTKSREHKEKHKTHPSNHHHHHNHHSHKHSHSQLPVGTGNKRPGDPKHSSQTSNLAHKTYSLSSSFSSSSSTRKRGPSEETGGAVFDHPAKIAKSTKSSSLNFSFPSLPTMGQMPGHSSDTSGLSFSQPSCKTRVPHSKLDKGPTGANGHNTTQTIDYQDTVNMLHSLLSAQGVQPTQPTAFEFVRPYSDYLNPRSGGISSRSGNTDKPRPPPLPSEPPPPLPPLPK
Method: as §3, §4

[40] = molecular target: PKC-gamma (Homo sapiens, UniProt P05129); experiment: in vitro kinase assay; assay type: biochemical
Method: as §3, §4

[41] = molecular target: PAK7 (Homo sapiens, UniProt Q9P286); experiment: in vitro kinase assay; assay type: biochemical
Sequence of PAK7 (Q9P286 whole entry): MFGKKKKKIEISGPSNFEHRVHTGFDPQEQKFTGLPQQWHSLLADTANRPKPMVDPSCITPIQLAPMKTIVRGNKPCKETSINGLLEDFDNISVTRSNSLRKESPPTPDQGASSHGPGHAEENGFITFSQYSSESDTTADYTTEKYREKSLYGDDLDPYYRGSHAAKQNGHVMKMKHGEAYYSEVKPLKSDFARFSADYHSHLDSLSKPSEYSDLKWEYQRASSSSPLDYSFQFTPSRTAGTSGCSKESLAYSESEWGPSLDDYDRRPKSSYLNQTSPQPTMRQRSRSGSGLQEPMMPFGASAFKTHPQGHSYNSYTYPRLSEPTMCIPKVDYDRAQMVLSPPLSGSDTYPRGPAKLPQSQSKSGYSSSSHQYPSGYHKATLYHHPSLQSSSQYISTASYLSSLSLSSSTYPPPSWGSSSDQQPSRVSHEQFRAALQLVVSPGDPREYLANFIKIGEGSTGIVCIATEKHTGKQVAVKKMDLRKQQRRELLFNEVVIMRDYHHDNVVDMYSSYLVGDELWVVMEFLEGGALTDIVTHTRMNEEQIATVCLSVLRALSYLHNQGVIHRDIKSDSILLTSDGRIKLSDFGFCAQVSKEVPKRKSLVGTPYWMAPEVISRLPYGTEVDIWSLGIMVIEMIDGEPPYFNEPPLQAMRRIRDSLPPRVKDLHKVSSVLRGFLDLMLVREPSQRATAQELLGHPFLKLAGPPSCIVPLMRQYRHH
Method: as §3, §4

IC50 [30]: 1.5 µM | IC50 [31]: 2.6 µM | IC50 [32]: 7.2 µM and 6.6 µM | IC50 [33]: 2.3 µM | IC50 [34]: 5.4 µM | IC50 [35]: 5.4 µM | IC50 [36]: 4.4 µM | IC50 [37]: 1.4 µM | IC50 [38]: 3.3 µM | inhibition of kinase cdk9 ([39]; in vitro kinase assay): 87% | IC50 ([39]; kinase CDK9/CycT, in vitro): 3.7 µM | IC50 [40]: 5.8 µM and 4.9 µM | IC50 [41]: 4.9 µM
SMILES: CN1CCCNc2c(c(=O)c2=O)NCCCN(C)CCCNc2c(c(=O)c2=O)NCCCN(C)CCCNc2c(c(=O)c2=O)NCCCN(C)CCCNc2c(c(=O)c2=O)NCCCN(C)CCCNc2c(c(=O)c2=O)NCCC1 [Compound 10]
IC50 [1]: 4.67 µM | IC50 [2]: 5.07 µM | IC50 [3]: 1.89 µM | IC50 [4]: 1.34 µM | IC50 [5]: 4.07 µM | IC50 [6]: 7.5 µM | IC50 [7]: 9.41 µM | IC50 [8]: 1.81 µM | IC50 [9]: 9.28 µM | IC50 [10]: 7.86 µM | IC50 [11]: 2.38 µM | IC50 [12]: 3.25 µM | IC50 [13]: 1.62 µM | IC50 [14]: 8.72 µM | IC50 [15]: 5.52 µM | IC50 [16]: 1.8 µM | IC50 [17]: 3.02 µM | IC50 [18]: 2.46 µM | IC50 [19]: 3.29 µM | IC50 [20]: 2.41 µM | IC50 [21]: 3.1 µM | IC50 [22]: 1.36 µM | IC50 [23]: 2.09 µM | IC50 [24]: 2.17 µM | IC50 [25]: 6.88 µM | IC50 [26]: 1.8 µM | IC50 [27]: 5.61 µM | IC50 [28]: 3.66 µM | IC50 [29]: 7.79 µM
